Eight compounds from PubChem BioAssay AID2060604 (Molecular Pharmacology Branch, DTP, NCI, 2025) can be followed below.

This assay has as its system 379773-124-R-J2-PDC complex spheroids, viability % test/control. Description: Anticancer human tumor 379773-124-R-J2-PDC patient-derived endometrial carcinoma cell line growth inhibition [CLK]. The note with it: for viability, T/C: stronger effect = lower value; for IC50: curve of compound. From the text:
A high-throughput screen of multi-cell type tumor spheroids was designed to identify active combinations of […] and targeted small molecules. Complex spheroids include a stromal component modeled by human endothelial cells (HUVEC) and fibroblasts modeled by human mesenchymal stem cells (MSCs). The concentration ranges selected for each drug and investigational agent were based upon clinically achievable concentrations if the clinical Cmax of the agent was known.
Compounds. The drugs and investigational agents: cirtuvivint (SM08502; NSC835563), CC-671 (NSC850746), vemurafenib (NSC761431), tapotoclax (NSC804041), sotorasib (NSC818433), adagrasib (NSC831453), MRTX-1133 (NSC836407), BAY2416964 (NSC825713), copanlisib (NSC816437), inavolisib (NSC800729), abemaciclib (NSC768073), osimertinib (NSC779217), entinostat (NSC756642), eltanexor (KPT-8602, NSC794443), venetoclax (NSC766270), ceralasertib (NSC777638), bortezomib (NSC756655), olaparib (NSC753686), talazoparib (NSC767125), alisertib (NSC759677), peposertib (NSC802822), gemcitabine (NSC613327), 5-fluorouracil (NSC19893), SN-38 (NSC673596), oxaliplatin (NSC266046), paclitaxel (NSC125973), and doxorubicin (NSC123127), were obtained from the National Cancer Institute (NCI) Developmental Therapeutics Program Chemical Repository. The FDA-approved anticancer drug set is available from the Developmental Therapeutics Program at https://dtp.cancer.gov/organization/dscb/obtaining/available plates.htm. […] The stock solutions were prepared in dimethyl sulfoxide (DMSO, Sigma-Aldrich, St. Louis, MO, cat. D2650), except for the platinum complexes which were prepared in saline (Quality Biological, Gaithersburg, MD, cat. 114-055-101), at 800-fold the tested concentration and stored at -70 degrees C prior to their use. All drugs and investigational agents were tested over a range starting from a high concentration at or near the clinical Cmax and decreasing in half-log increments. If the clinical Cmax for an agent had not been determined, the highest concentration tested was 10 microM.
Cell Culture. All cells were maintained in an incubator at 37 degrees C and 5% CO2 with 95% humidity. The PDC lines were cultured according to standard operating procedures established by the NCI PDMR. Briefly, all PDCs were thawed and cultured in Matrigel-coated flasks prepared with a working solution of 1X Ham's F-12 nutrient mix, without supplementation (Invitrogen, Waltham, MA, cat. 11765054), 100 U/mL penicillin-streptomycin (Invitrogen, cat. 15140122), and 2.5% Matrigel (Corning Inc., Corning, NY, cat. 354248) for the first three passages. The 947758-054-R-J2-PDC line was cultured in 6B/Colon 1A media, which includes advanced DMEM/F-12 (Thermo Fisher Scientific, cat. 12634028), 10 mM HEPES (Thermo Fisher Scientific, cat. 15630080), 1X GlutaMAX supplement (Thermo Fisher Scientific, cat. 35050061), 0.1 mg/mL primocin (InvivoGen, cat. ant-pm-2), 10% defined fetal bovine serum, heat inactivated (HyClone Laboratories Inc., cat. SH30070.03HI), 1.25 mM N-Acetyl-L-cysteine (Sigma-Aldrich, cat. A9165), 10 mM nicotinamide (Sigma-Aldrich, cat. N0636), 1X B-27 supplement (Thermo Fisher Scientific, cat. 17504044), 1X N-2 supplement (Thermo Fisher Scientific, cat. 17502048), and 10 microM Y-27632 dihydrochloride (Tocris Bioscience, cat. 1254). The 876862-298-R-J1-PDC was cultured in 6E media, which includes all 6B/Colon 1A media components plus 50% L-WRN conditioned media (ATCC, cat. CRL-3276), 50 ng/mL recombinant human EGF recombinant protein (hEGF; Thermo Fisher Scientific, cat. PHG0311), 10 ng/mL recombinant human fibroblast growth factor 10 (hGFG-10; PeproTech, cat. 100-26), 1 ng/mL recombinant human fibroblast growth factor 2 (hFGF-2; PeproTech, cat. 100-18B), and 1 µM prostaglandin E2 (PGE2; Tocris, cat. 2296). The 227483-062-R1-J1-PDC line was cultured in Panc media, containing all 6E components except hFGF-2, with the addition of 500 nM SB-431542 (Selleckchem, cat. S1067) and 10 nM gastrin (Tocris, cat. 3006). […]

Where “and” joins values, the source holds several entries; their conditions need not be identical. Identical values can stand only once.
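Further: compound exposure lasted seven days before the viability readout.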
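Wherever viability, T/C is given: 100% = DMSO vehicle control wells.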

On to `C#Cc1c(F)ccc2cc(O)cc(-c3ncc4c(N5CC6CCC(C5)N6)nc(OCC56CCCN5CC(F)C6)nc4c3F)c12` (stereo unspecified), for which the IC50 was greater than 10 µM. In addition, the viability, T/C (compound 0.0316 µM) was 90.6% and 93%. Also, under “compound 0.1 µM”, the viability, T/C is 79.4% and 89.5%. Also, the viability, T/C (compound 0.316 µM) was 88.3% and 86.8%. The viability, T/C (compound 1 µM) was 92% and 85.9%. Further, the viability, T/C (compound 3.16 µM) was 87% and 103%. Moreover, the viability, T/C (compound 10 µM) was 80% and 87.1%.
Consider `C=C(F)C(=O)N1CCN(c2nc(OCC3CCCN3C)nc3c2CCN(c2cccc4cccc(Cl)c24)C3)CC1CC#N` (stereo unspecified), for which the IC50 is 2.24 µM and 4.26 µM. Besides, the viability, T/C (compound 0.0316 µM) is 76.2% and 106%. The viability, T/C (compound 0.1 µM) is 93.9% and 84.4%. For the same compound, the viability, T/C (compound 0.316 µM) is 95% and 80.9%. Moreover, the viability, T/C (compound 1 µM) is 92% and 98.5%. Also, the viability, T/C (compound 3.16 µM) was 33.3% and 66.9%. For the setting “compound 10 µM”, the viability, T/C is 0.2% and 1.39%.
As to `C=CC(=O)N1CCN(c2nc(=O)n(-c3c(C)ccnc3C(C)C)c3nc(-c4c(O)cccc4F)c(F)cc23)C(C)C1` (stereo unspecified), the IC50 is greater than 10 µM. For the same compound, for the setting “compound 0.0316 µM”, the viability, T/C was 93.1% and 85.7%. Further, under “compound 0.1 µM”, the viability, T/C is 82.4% and 92.2%. Further, for the setting “compound 0.316 µM”, the viability, T/C was 88.2% and 84.4%. Under “compound 1 µM”, the viability, T/C was 107% and 91.6%. The viability, T/C (compound 3.16 µM) is 95.7% and 98.6%. Moreover, the viability, T/C (compound 10 µM) was 92.6% and 94.5%.
Regarding `C=CC(=O)Nc1cc(Nc2nccc(-c3cn(C)c4ccccc34)n2)c(OC)cc1N(C)CCN(C)C`, the half-inhibitory concentration (IC50) was greater than 0.3 µM. Further, under “compound 0.000949 µM”, the viability, T/C is 101% and 85.7%. Besides, the viability, T/C (compound 0.003 µM) is 87.9% and 87.5%. In addition, the viability, T/C (compound 0.00949 µM) is 91.7% and 74.8%. Further, the viability, T/C (compound 0.03 µM) is 94.4% and 105%. Also, the viability, T/C (compound 0.0949 µM) is 96.5% and 100%. In addition, under “compound 0.3 µM”, the viability, T/C is 98.5% and 90.8%.
`CC(C)CC(NC(=O)C(Cc1ccccc1)NC(=O)c1cnccn1)B(O)O` (stereo unspecified): the IC50 is 0.00185 µM and 0.00153 µM. Also, the viability, T/C (compound 0.000949 µM) is 83.2% and 77.4%. Besides, the viability, T/C (compound 0.003 µM) was 25.8% and 11.7%. For the same compound, where the note is “compound 0.00949 µM”, the viability, T/C was 0.16% and 0.15%. For the setting “compound 0.03 µM”, the viability, T/C was 0.22% and 0.21%. The viability, T/C (compound 0.0949 µM) was 0.19% and 0.16%. The viability, T/C (compound 0.3 µM) was 0.09% and 0.12%.
For `CC(CO)NC(=O)c1cc(-c2ccc(Cl)cc2)nn(-c2cnn(C)c2)c1=O` (stereo unspecified), the IC50 is greater than 10 µM. For the same compound, the viability, T/C (compound 0.0316 µM) is 98.9% and 90.2%. Further, the viability, T/C (compound 0.1 µM) is 83.6% and 92.8%. For the same compound, the viability, T/C (compound 0.316 µM) is 84.6% and 97.6%. The viability, T/C (compound 1 µM) is 68% and 85.8%. In addition, the viability, T/C (compound 3.16 µM) is 88.3% and 95.1%. Also, where the note is “compound 10 µM”, the viability, T/C was 72.3% and 68.5%.
Take `CC(Nc1ccc2c(c1)OCCn1cc(N3C(=O)OCC3C(F)F)nc1-2)C(N)=O` (stereo unspecified): the IC50 was greater than 10 µM. Further, the viability, T/C (compound 0.0316 µM) was 84.9% and 92.7%. The viability, T/C (compound 0.1 µM) was 93.1% and 85.8%. In addition, the viability, T/C (compound 0.316 µM) is 93.5% and 79.4%. Further, the viability, T/C (compound 1 µM) was 79% and 87.4%. For the same compound, the viability, T/C (compound 3.16 µM) is 77.1% and 78.5%. Further, the viability, T/C (compound 10 µM) is 69.1% and 67.6%.
As to `CCCS(=O)(=O)Nc1ccc(F)c(C(=O)c2c[nH]c3ncc(-c4ccc(Cl)cc4)cc23)c1F`, the IC50 is greater than 10 µM. The viability, T/C (compound 0.0316 µM) is 83.1% and 93.8%. The viability, T/C (compound 0.1 µM) was 88.5% and 84.4%. Moreover, the viability, T/C (compound 0.316 µM) is 85.2% and 98.8%. In addition, the viability, T/C (compound 1 µM) was 100% and 90.3%. For the same compound, the viability, T/C (compound 3.16 µM) is 81.5% and 78.6%. Also, the viability, T/C (compound 10 µM) is 64.6% and 53.6%.

As a reminder, the viability, T/C is the ratio of treated to control. Broadly, the IC50 is the concentration that gives 50% inhibition.
